A word on the melting point: it is the temperature of the solid-liquid transition. For `Clc1ccc(N2CCC3(CCNCC3)CC2)nc1`, the melting point was in the range of 71.2 to 72.9 °C.

`Brc1cccc(N2CCC3(CCNCC3)CC2)n1.O=C(O)/C=C/C(=O)O`: the melting point lay within 198.5 to 199.3 °C. `Clc1cccc(N2CCC3(CCNCC3)CC2)c1Cl`: the melting point was in the range of 80.4 to 81.9 °C. Consider `Fc1ccc(N2CCC3(CCNCC3)CC2)cc1Cl.O=C(O)/C=C/C(=O)O`, for which the melting point lay in the range of 201.4 to 202.2 °C. Then `Brc1ccc(N2CCC3(CCNCC3)CC2)nc1`, with 103 to 105 °C.

In turn, `COc1ccc2cc(N3CCC4(CCNCC4)CC3)ccc2c1` [3rd compound of method C, 3-(6-Methoxy-naphthalen-2-yl)-3,9-diaza-spiro[5.5]undecane] showed a melting point of 175.8 to 177.6 °C. In the case of `Clc1ccc(N2CCC3(CCNCC3)CC2)cc1Cl` [4th compound of method C, 3-(3,4-Dichloro-phenyl)-3,9-diaza-spiro[5.5]undecane], the melting point lay in the range of 209 to 212 °C. Take `Clc1ccc(N2CCC3(CCNCC3)CC2)cc1` [7th compound of method C, 3-(4-Chloro-phenyl)-3,9-diaza-spiro[5.5]undecane]: the melting point lay in the range of 95.5 to 97.4 °C. `c1ccc2cc(N3CCC4(CCNCC4)CC3)ccc2c1` [10th compound of method C, 3-Naphthalen-2-yl-3,9-diaza-spiro[5.5]undecane] had a melting point of 158 to 162 °C.

The values are drawn from patent US7943630B2, “3,9-diaza-spiro[5.5]undecane derivatives and their use as monoamine neurotransmitter re-uptake inhibitors” (Neurosearch A/S, priority 2005, dated 2011).
